The numbers were not newly measured in patent publication US20060292651A1, “Protein labelling with oº-alkylguanine-dna alkyltrnsferase” (priority 2002, published 2006), which cites them from elsewhere.

The series has as its target T1, hAGT (Homo sapiens, UniProt P16455).
T1 sequence (P16455 1-207): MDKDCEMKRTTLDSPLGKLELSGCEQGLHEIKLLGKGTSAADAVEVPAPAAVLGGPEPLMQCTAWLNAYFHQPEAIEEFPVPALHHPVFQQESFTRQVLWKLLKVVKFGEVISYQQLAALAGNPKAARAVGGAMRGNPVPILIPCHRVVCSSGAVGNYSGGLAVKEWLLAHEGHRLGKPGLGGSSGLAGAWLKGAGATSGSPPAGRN
As to conditions: reaction with hAGT.

The structures appear in SMILES notation.

Regarding `Nc1nc(OCc2ccccc2)c2nc[nH]c2n1` [O^6-benzyl-guanine], the “second order rate constant” value is recorded as “approximately 10^3 sec^−1 M^−1”.
